Source: paper PMC10820527, “Synthesis, Characterization, and Investigation of Anti-Inflammatory and Cytotoxic Activities of Novel Thiourea Derivatives of Naproxen” (Pharmaceutics, 2023)

Assays:
[1] = system: MRC-5 fibroblast cell line; experiment: MTT cytotoxicity assay, MRC-5; type: cell-based; conditions: Homo sapiens, mean ± SD
Method: (§1) Three cancer cell lines (MDA-MB-231, HCT116 and HeLa; i.e., human breast cancer cells, human colorectal cancer cells, and human cervical cancer cells, respectively), and one non-malignant fibroblast MRC-5 cell line (control) were used in this study. The American Type Cell Collection (ATCC, Manassas, VA, USA) provided all examined cell lines. The cells were grown in a complete medium made up of high-glucose DMEM media supplemented with 10% fetal bovine serum and […] L-glutamine (both from Sigma-Aldrich, USA). The cells were cultured in 25 cc flasks (Thermo Fischer Scientific, Waltham, MA, USA) at 37 °C with 100% humidity in a 5% CO2 atmosphere.
(§2) The MTT test was used to assess the cytotoxicity of compounds 1–14 [44]. The cytotoxicity of naproxen was also investigated due to its clinical use and structural similarity. Throughout the exponential development period, cells were taken from culture flasks and counted, and 5 × 10^3 cells/well were planted into 96-well culture plates. Following that, the cell lines were treated with varying doses of the investigated chemicals (1–14), naproxen ([…]), and fresh complete media as a control. All evaluated cells were incubated for 24, 48, and 72 h at 37 °C in an environment containing 5% CO2 and 100% humidity. Following incubation, each well’s culture media was taken out, each well received an addition of MTT solution at a final concentration of 0.5 mg/mL, and the cells were left to incubate for an additional four hours. The MTT solution was then withdrawn carefully, and the formazan crystals were dissolved in DMSO. After shaking the plates for 10 min, absorbance at 595 nm was measured using a multiplate reader (Zenyth 3100, Anthos Labtec Instruments, Salzburg, Austria). All concentrations of the tested compounds were performed in three separate wells of the microtiter plates and in three separate experiments. The results were reported as a ratio to the control value, untreated cells. IC50 values were also determined using Microsoft Office Excel 2021. The percentage of viable cells was estimated by dividing the readout absorbance value in the wells containing treated cells by the average absorbance value measured in the wells containing untreated cells, and multiplying the result by 100 [44]. % of the viable cells = ((absorbance of treated cell-absorbance of blank)/(absorbance of untreated cell-absorbance of blank)) × 100(3)

[2] = molecular target: T1, COX-2 (Homo sapiens, UniProt P35354); experiment: Fluorometric COX-2 inhibitor screening kit; type: biochemical; conditions: mean of two measurements with standard error, read-out: COX-2 Percent of Inhibition
T1 construct: purchased Abcam
T1 sequence (P35354 18-604): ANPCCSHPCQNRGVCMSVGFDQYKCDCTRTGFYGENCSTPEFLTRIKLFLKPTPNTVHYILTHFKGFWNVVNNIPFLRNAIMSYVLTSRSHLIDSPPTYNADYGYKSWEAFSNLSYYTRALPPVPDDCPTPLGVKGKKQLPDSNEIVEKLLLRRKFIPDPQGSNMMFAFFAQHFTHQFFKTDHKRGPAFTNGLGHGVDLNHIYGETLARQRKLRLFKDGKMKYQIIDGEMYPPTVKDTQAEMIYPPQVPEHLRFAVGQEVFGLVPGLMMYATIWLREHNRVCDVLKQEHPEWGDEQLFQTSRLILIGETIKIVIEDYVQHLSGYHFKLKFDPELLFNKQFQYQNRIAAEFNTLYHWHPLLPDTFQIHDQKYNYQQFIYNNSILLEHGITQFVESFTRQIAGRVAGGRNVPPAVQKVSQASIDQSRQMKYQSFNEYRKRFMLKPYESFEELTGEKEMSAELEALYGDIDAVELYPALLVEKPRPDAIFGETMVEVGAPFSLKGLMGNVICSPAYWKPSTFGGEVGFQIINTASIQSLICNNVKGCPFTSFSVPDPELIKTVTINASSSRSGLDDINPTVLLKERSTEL
Method: The COX-2 and 5-LOX inhibitory potential of the tested compounds was evaluated using a fluorometric COX-2 and 5-LOX inhibitor screening kit (Abcam, Cambridge, UK). These tests are based on determining the presence of prostaglandin G2 (a product of COX enzyme activity) or an intermediate generated by the enzyme 5-LOX, using fluorometric detection. The mentioned experiments were performed according to the manufacturer’s instructions.
For the determination of COX-2 inhibitory potential of tested compounds, stock solutions (5 mM in DMSO) were diluted with the same solvent (test solutions). The test solutions were further diluted with COX assay buffer by mixing 2 µL of the corresponding test solution and 8 µL of COX assay buffer. For the preparation of inhibitory control (IC), celecoxib (2 µL) and COX assay buffer (8 µL) were mixed. Solvent control (SC) was prepared by mixing DMSO (2 µL) and the COX assay buffer (8 µL), enzyme control (EC) was 10 µL of COX assay buffer, while the samples (S) were 10 µL of diluted test solutions. IC, SC, EC, and S were transferred into corresponding wells. For the determination of 5-LOX inhibitory potential of tested compounds, stock solutions of the same concentration (5 mM) were prepared in DMSO. These solutions were further diluted with the same solvent to obtain the test solutions, which were added into the appropriate wells (2 µL). EC, SC, and IC were prepared by adding 2 µL of the assay buffer, DMSO, and zileuton into corresponding wells, respectively.
The fluorescence of the samples was measured kinetically at 25 °C (COX-2: Ex/Em = 535/587 nm, during 10 min; 5-LOX: Ek/Em = 500/536 nm during 20 min) using a Synergi LX multi-mode microplate reader (BioTek, Shoreline, WA, USA).

[3] = system: healthy male rats; experiment: Acute oral toxicity assessment (OECD Guidelines No. 423); type: in vivo, rat; conditions: single per os dose 10 mg/kg, sacrifice after 14 days, (absolute organ weight × 100%)/body weight
Method: The acute oral toxicity was assessed in healthy male rats (n = 24, three rats per group, body weight 180–200 g) according to a previously established protocol and the OECD Guidelines No. 423 [37, 38].
Animals were randomly assigned to the following groups: control group—rats that received single dose of 1% DMSO and experimental groups—rats that received compounds 8–14 per os in the single dose of 10 mg/kg dissolved in 1% DMSO. All rats were fasted prior to administration of compounds and during 3 h following the treatment.
Afterwards, rats were kept in single cages and observed once daily during 14 days for clinical signs of toxicity. All behavioral changes and any signs of toxicity were recorded (fur and skin, urination (color), feces consistency, eyes, salivation, any alterations in behavior pattern). Additionally, food and water intake and the body weight were measured daily over 14 days. After accomplishing the monitoring period, rats were sacrificed, and organ weight (liver, kidney, stomach, and heart) was recorded. Relative organ weight was calculated as follows: (absolute organ weight × 100%)/body weight of rat on the day of sacrifice(1)

[4] = system: HeLa; experiment: MTT cytotoxicity assay, HeLa; type: cell-based, human; conditions: for IC50: mean ± SD
Method: as §1, §2

COc1ccc2cc([C@H](C)C(=O)NC(=S)Nc3ccccc3)ccc2c1 [Compound 8, (S)-2-(6-methoxynaphthalen-2-yl)-N-(phenylcarbamothioyl)propanamide]
IC50 ([1]; MRC5, 24 h): > 200 µM | IC50 ([1]; MRC5, 48 h): > 200 µM | IC50 ([1]; MRC5, 72 h): > 200 µM | inhibition at 10 µM [2]: 36.2 ± 16.4% | Relative organ weight, Heart [3]: 0.31 ± 0.01 | Relative organ weight, Kidney [3]: 0.32 ± 0.02 | Relative organ weight, Liver [3]: 2.65 ± 0.15 | Relative organ weight, Stomach [3]: 0.51 ± 0.06 | Cytotoxic effect against HeLa cells (in words) [4]: strong cytotoxic effects | IC50 ([4]; 72 h): 9.1 ± 2.5 µM | IC50 ([4]; Homo sapiens, HeLa, 24 h): > 140 µM | IC50 ([4]; Homo sapiens, HeLa, 48 h): 97.6 ± 10.9 µM | IC50 ([4]; Homo sapiens, HeLa, 72 h): 9 ± 2 µM

COc1ccc2cc([C@H](C)C(=O)NC(=S)Nc3ccc(C)cc3)ccc2c1 [Compound 9, (S)-2-(6-methoxynaphthalen-2-yl)-N-(p-tolylcarbamothioyl)propanamide]
IC50 ([1]; MRC5, 24 h): > 200 µM | IC50 ([1]; MRC5, 48 h): > 200 µM | IC50 ([1]; MRC5, 72 h): > 200 µM | inhibition at 10 µM [2]: 26.8 ± 6.07% | Relative organ weight, Heart [3]: 0.29 ± 0.03 | Relative organ weight, Kidney [3]: 0.29 ± 0.03 | Relative organ weight, Liver [3]: 3.01 ± 0.27 | Relative organ weight, Stomach [3]: 0.56 ± 0.03 | IC50 ([4]; Homo sapiens, HeLa, 24 h): > 200 µM | IC50 ([4]; Homo sapiens, HeLa, 48 h): > 200 µM | IC50 ([4]; Homo sapiens, HeLa, 72 h): 120 ± 8.7 µM

COc1ccc2cc([C@H](C)C(=O)NC(=S)Nc3ccccc3C)ccc2c1 [Compound 10, (S)-2-(6-methoxynaphthalen-2-yl)-N-(o-tolylcarbamothioyl)propanamide]
IC50 ([1]; MRC5, 24 h): > 200 µM | IC50 ([1]; MRC5, 48 h): > 200 µM | IC50 ([1]; MRC5, 72 h): > 200 µM | inhibition at 10 µM [2]: 12.6 ± 4.99% | Relative organ weight, Heart [3]: 0.34 ±0.04 | Relative organ weight, Kidney [3]: 0.31 ± 0.04 | Relative organ weight, Liver [3]: 2.67 ± 0.15 | Relative organ weight, Stomach [3]: 0.58 ± 0.04 | Cytotoxic effect against HeLa cells (in words) [4]: moderate cytotoxic effect | IC50 ([4]; Homo sapiens, HeLa, 24 h): > 200 µM | IC50 ([4]; Homo sapiens, HeLa, 48 h): 111 ± 8.3 µM | IC50 ([4]; Homo sapiens, HeLa, 72 h): 85.3 ± 9.1 µM

COc1ccc2cc([C@H](C)C(=O)NC(=S)Nc3ccccc3OC)ccc2c1 [Compound 11, (S)-2-(6-methoxynaphthalen-2-yl)-N-((2-methoxyphenyl)carbamothioyl)propanamide]
IC50 ([1]; MRC5, 24 h): > 200 µM | IC50 ([1]; MRC5, 48 h): > 200 µM | IC50 ([1]; MRC5, 72 h): > 200 µM | inhibition at 10 µM [2]: 16.2 ± 13.7% | Relative organ weight, Heart [3]: 0.32 ± 0.02 | Relative organ weight, Kidney [3]: 0.33 ± 0.05 | Relative organ weight, Liver [3]: 2.83 ± 0.20 | Relative organ weight, Stomach [3]: 0.54 ± 0.05 | IC50 ([4]; Homo sapiens, HeLa, 24 h): > 200 µM | IC50 ([4]; Homo sapiens, HeLa, 48 h): > 200 µM | IC50 ([4]; Homo sapiens, HeLa, 72 h): > 200 µM

COc1ccc2cc([C@H](C)C(=O)NC(=S)Nc3ccccc3F)ccc2c1 [Compound 12, (S)-N-((2-fluorophenyl)carbamothioyl)-2-(6-methoxynaphthalen-2-yl)propanamide]
IC50 ([1]; MRC5, 24 h): > 200 µM | IC50 ([1]; MRC5, 48 h): > 200 µM | IC50 ([1]; MRC5, 72 h): > 200 µM | inhibition at 10 µM [2]: 13.8 ± 6.41% | Relative organ weight, Heart [3]: 0.35 ± 0.03 | Relative organ weight, Kidney [3]: 0.32 ± 0.04 | Relative organ weight, Liver [3]: 2.76 ± 0.36 | Relative organ weight, Stomach [3]: 0.59 ± 0.05 | Cytotoxic effect against HeLa cells (in words) [4]: moderate cytotoxic effect | IC50 ([4]; Homo sapiens, HeLa, 24 h): 135 ± 16.8 µM | IC50 ([4]; Homo sapiens, HeLa, 48 h): 103 ± 9.5 µM | IC50 ([4]; Homo sapiens, HeLa, 72 h): 72.8 ± 6.9 µM

COC(=O)[C@H](Cc1ccccc1)NC(=S)NC(=O)[C@@H](C)c1ccc2cc(OC)ccc2c1 [Compound 13, Methyl (((S)-2-(6-methoxynaphthalen-2-yl)propanoyl)carbamothioyl)phenylalaninate]
IC50 ([1]; MRC5, 24 h): > 200 µM | IC50 ([1]; MRC5, 48 h): > 200 µM | IC50 ([1]; MRC5, 72 h): > 200 µM | inhibition at 10 µM [2]: 23.1 ± 9.83% | Relative organ weight, Heart [3]: 0.30 ± 0.04 | Relative organ weight, Kidney [3]: 0.28 ± 0.06 | Relative organ weight, Liver [3]: 3.09 ± 0.27 | Relative organ weight, Stomach [3]: 0.50 ± 0.06 | IC50 ([4]; Homo sapiens, HeLa, 24 h): > 200 µM | IC50 ([4]; Homo sapiens, HeLa, 48 h): > 200 µM | IC50 ([4]; Homo sapiens, HeLa, 72 h): > 200 µM

COC(=O)[C@H](Cc1c[nH]c2ccccc12)NC(=S)NC(=O)[C@@H](C)c1ccc2cc(OC)ccc2c1 [Compound 14, Methyl (((S)-2-(6-methoxynaphthalen-2-yl)propanoyl)carbamothioyl)tryptophanate]
IC50 ([1]; MRC5, 24 h): > 200 µM | IC50 ([1]; MRC5, 48 h): > 200 µM | IC50 ([1]; MRC5, 72 h): > 200 µM | inhibition at 10 µM [2]: 29.8 ± 12.1% | Relative organ weight, Heart [3]: 0.31 ± 0.02 | Relative organ weight, Kidney [3]: 0.29 ± 0.04 | Relative organ weight, Liver [3]: 2.03 ± 0.42 | Relative organ weight, Stomach [3]: 0.53 ± 0.04 | IC50 ([4]; Homo sapiens, HeLa, 24 h): > 200 µM | IC50 ([4]; Homo sapiens, HeLa, 48 h): 151 ± 14.2 µM | IC50 ([4]; Homo sapiens, HeLa, 72 h): 110 ± 11.5 µM
